This is an account of results in PubChem BioAssay AID1963974 (Molecular Pharmacology Branch, DTP, NCI, 2024).

This test concerns 648629-189-R-J1-PDC spheroids with HUVEC/MSC, viability. The test can be described thus: Anticancer human tumor 648629-189-R-J1-PDC patient-derived bladder carcinoma cell line growth inhibition [PI3K]. The settings on record: for viability, T/C: stronger effect = lower value. The source says:
Combinatorial screen of targeted agents with the PI3K inhibitors inavolisib, alpelisib, duvelisib, and copanlisib in multi-cell type tumor spheroids
A high-throughput screen of multi-cell type tumor spheroids was designed to identify active combinations of targeted small molecules and PI3K pathway inhibitors. Complex spheroids include a stromal component modeled by human endothelial cells (HUVEC) and fibroblasts modeled by human mesenchymal stem cells (MSCs). The concentration ranges selected for each drug and investigational agent were based upon clinically achievable concentrations if the clinical Cmax of the agent was known.
Compounds. The drugs and investigational agents: inavolisib (NSC800729), alpelisib (NSC765974), duvelisib (NSC772469), copanlisib (NSC816437), ipatasertib (NSC767898), afuresertib (NSC778305), talazoparib (NSC767125), sapanisertib (NSC764658), selumetinib (NSC741078), tovorafenib (DAY101, NSC766906), vemurafenib (NSC761431), ravoxertinib (NSC781343), sotorasib (NSC818433), MRTX1133 (NSC 836407), abemaciclib (NSC 768073), palbociclib (NSC758247), venetoclax (NSC 766270), SY5609 (NSC837396), enzalutamide (NSC755605), and darolutamide (NSC825331), were obtained from the National Cancer Institute (NCI) Developmental Therapeutics Program Chemical Repository. The FDA-approved anticancer drug set is available from the NCI Developmental Therapeutics Program. […] The stock solutions were prepared in dimethyl sulfoxide (DMSO, Sigma-Aldrich, St. Louis, MO, cat. D2650) at 800-fold the tested concentration and stored at -70 degrees C prior to their use. All drugs and investigational agents were tested over a range starting from a high concentration at or near the clinical Cmax and decreasing in half-log increments. If the clinical Cmax for an agent had not been determined, the highest concentration tested was 10 microM.
Cell Culture. All cells were maintained in an incubator at 37 degrees C and 5% CO2 with 95% humidity. The PDC lines were cultured according to standard operating procedures established by the NCI PDMR (https://pdmr.cancer.gov/sops/default.htm). All PDCs were thawed and cultured in Matrigel-coated flasks prepared with a working solution of 1X Ham's F-12 nutrient mix, without supplementation (Invitrogen, Waltham, MA, cat. 11765054), 100 U/mL penicillin-streptomycin (Invitrogen, cat. 15140122), and 2.5% Matrigel (Corning Inc., Corning, NY, cat. 354248) for the first three passages. The 354836-022-R-J1-PDC, 475296-252-R-J1-PDC, and 997726-040-R-J2-PDC lines were cultured in 6A media, which includes advanced DMEM/F-12 (Thermo Fisher Scientific, cat. 12634028), 10 mM HEPES (Thermo Fisher Scientific, cat. 15630080), 1X GlutaMAX supplement (Thermo Fisher Scientific, cat. 35050061), 0.1 mg/mL primocin (InvivoGen, San Diego, CA, cat. ant-pm-2), 10% defined fetal bovine serum, heat inactivated (HyClone Laboratories Inc., Logan, UT, cat. SH30070.03HI), 50% L-WRN conditioned media (ATCC, cat. CRL-3276), 1.25 mM N-Acetyl-L-cysteine (Sigma-Aldrich, cat. A9165), 10 mM nicotinamide (Sigma-Aldrich, cat. N0636), 1X B-27 supplement (Thermo Fisher Scientific, cat. 17504044), 1X N-2 supplement (Thermo Fisher Scientific, cat. 17502048), and 10 microM Y-27632 dihydrochloride (Tocris Bioscience, Bristol, United Kingdom, cat. 1254). The 624824-186-R-J2-PDC line was cultured in 6C/Colon 1B media, which includes all 6A media components plus 50 ng/mL human EGF recombinant protein (Thermo Fisher Scientific, cat. PHG0311). […]
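Also: spheroids exposed to agents for seven days before reading.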
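For viability, T/C in this document: percent of vehicle control luminescence where 100% = DMSO treated spheroids.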

As usually defined, the IC50 is the midpoint of a concentration-inhibition curve. What is called viability, T/C is the result in the treated group divided by that in the control group, in per cent. With `Cn1cnc2c(F)c(Nc3ccc(Br)cc3Cl)c(C(=O)NOCCO)cc21` + CC(Nc1ccc2c(c1)OCCn1cc(N3C(=O)OCC3C(F)F)nc1-2)C(N)=O, the IC50 was more than 3 µM (curve of first compound, second compound 0.00316 µM); more than 3 µM (curve of first compound, second compound 0.01 µM); more than 3 µM (curve of first compound, second compound 0.0316 µM); more than 3 µM (curve of first compound, second compound 0.1 µM); more than 3 µM (curve of first compound, second compound 0.316 µM); more than 3 µM (curve of first compound, second compound 1 µM). Moreover, the viability, T/C (second compound 0.00316 µM, first compound 0.00949 µM) was 95.5%; the viability, T/C (second compound 0.00316 µM, first compound 0.03 µM) was 103%; the viability, T/C (second compound 0.00316 µM, first compound 0.0949 µM) is 99.2%; the viability, T/C (second compound 0.00316 µM, first compound 0.3 µM) was 91.8%; the viability, T/C (second compound 0.00316 µM, first compound 0.949 µM) is 94.4%; the viability, T/C (second compound 0.00316 µM, first compound 3 µM) is 81.6%. The viability, T/C (second compound 0.01 µM, first compound 0.00949 µM) is 93.4%; the viability, T/C (second compound 0.01 µM, first compound 0.03 µM) was 91.2%; the viability, T/C (second compound 0.01 µM, first compound 0.0949 µM) was 92.9%; the viability, T/C (second compound 0.01 µM, first compound 0.3 µM) is 91.8%; the viability, T/C (second compound 0.01 µM, first compound 0.949 µM) is 103%; the viability, T/C (second compound 0.01 µM, first compound 3 µM) was 81.1%. In addition, the viability, T/C by setting is: (second compound 0.0316 µM, first compound 0.00949 µM) 98.5%; (second compound 0.0316 µM, first compound 0.03 µM) 96.2%; (second compound 0.0316 µM, first compound 0.0949 µM) 87.5%; (second compound 0.0316 µM, first compound 0.3 µM) 89.3%; (second compound 0.0316 µM, first compound 0.949 µM) 95.2%; (second compound 0.0316 µM, first compound 3 µM) 79.2%. Besides, the viability, T/C is 90.7% (second compound 0.1 µM, first compound 0.00949 µM); 91.7% (second compound 0.1 µM, first compound 0.03 µM); 82.6% (second compound 0.1 µM, first compound 0.0949 µM); 92.2% (second compound 0.1 µM, first compound 0.3 µM); 93.9% (second compound 0.1 µM, first compound 0.949 µM); 75.8% (second compound 0.1 µM, first compound 3 µM). For the same compound, the viability, T/C was 81.1% (second compound 0.316 µM, first compound 0.00949 µM); 79.2% (second compound 0.316 µM, first compound 0.03 µM); 70.3% (second compound 0.316 µM, first compound 0.0949 µM); 78.5% (second compound 0.316 µM, first compound 0.3 µM); 74.3% (second compound 0.316 µM, first compound 0.949 µM); 69.1% (second compound 0.316 µM, first compound 3 µM). For the same compound, the viability, T/C reads like this: (second compound 1 µM, first compound 0.00949 µM) 66.1%; (second compound 1 µM, first compound 0.03 µM) 70.4%; (second compound 1 µM, first compound 0.0949 µM) 66.4%; (second compound 1 µM, first compound 0.3 µM) 96.4%; (second compound 1 µM, first compound 0.949 µM) 66%; (second compound 1 µM, first compound 3 µM) 51%.

On to `CC(Nc1ncnc2nc[nH]c12)c1cc2cccc(Cl)c2c(=O)n1-c1ccccc1` (stereo unspecified), for which the viability, T/C reads like this: (compound 0.0316 µM) 104% [middle of 8 runs]; (compound 0.1 µM) 104% [middle of 8 runs]; (compound 0.316 µM) 103% [middle of 8 runs]; (compound 1 µM) 97.5% [middle of 8 runs]; (compound 3.16 µM) 97.1% [middle of 8 runs]; (compound 10 µM) 90.1% [middle of 8 runs]. For the same compound, for the setting “compound alone, run of 04/25/2023”, the IC50 was more than 10 µM.

Take `Cc1nc(NC(=O)N2CCCC2C(N)=O)sc1-c1ccnc(C(C)(C)C(F)(F)F)c1` (stereo unspecified): the viability, T/C (compound 0.0316 µM) is 103% [middle of 8 runs]; the viability, T/C (compound 0.1 µM) was 101% [middle of 8 runs]; the viability, T/C (compound 0.316 µM) was 95.9% [middle of 8 runs]; the viability, T/C (compound 1 µM) is 77.4% [middle of 8 runs]; the viability, T/C (compound 3.16 µM) was 60% [middle of 8 runs]; the viability, T/C (compound 10 µM) was 37.3% [middle of 8 runs]. In addition, the IC50 (compound alone, run of 04/24/2023) is 5.36 µM [middle of 8 runs].
